Experiments:
[1] = system: Erysiphe [syn. Blumeria] graminis forma specialis. tritici; experiment: Activity against mildew of wheat (protective, wheat seedlings cultivar Kanzler); assay type: in vivo; settings: 7 days
Protocol: The active compounds, separately or together, were formulated as a 10% emulsion in a mixture of 63% by weight of cyclohexanone and 27% by weight of emulsifier, and diluted with water to the desired concentration. Evaluation was carried out by determining the infected leaf areas in percent. These percentages were converted into efficacies. The efficacy (W) was determined as follows using Abbot's formula: [formula] α corresponds to the fungal infection of the treated plants in % and β corresponds to the fungal infection of the untreated (control) plants in % An efficacy of 0 means that the infection level of the treated plants corresponds to that of the untreated control plants; an efficacy of 100 means that the treated plants were not infected. The expected efficacies of the mixtures of the active compounds were determined using Colby's formula [R. S. Colby, Weeds 15, 20-22 (1967)] and compared with the observed efficacies. E=x+y−x·y/100 Colby's formula: • E expected efficacy, expressed in % of the untreated control, when using the mixture of the active compounds A and B at the concentrations a and b • x efficacy, expressed in % of the untreated control, when using the active compound A at the concentration a • y efficacy, expressed in % of the untreated control, when using the active compound B at the concentration b Leaves of wheat seedlings of the cultivar “Kanzler” grown in pots were sprayed to runoff point with an aqueous preparation of active compound which had been prepared from a stock solution comprising 10% of active compound, 85% of cyclohexanone. and 5% of emulsifier, and, 24 hours after the spray coating had dried on, the leaves were dusted with spores of mildew of wheat (Erysiphe [syn. Blumeria] graminis forma specialis. tritici). The test plants were then placed in a greenhouse at 20-24° C. and 60-90% relative atmospheric humidity. After 7 days, the extent of the development of the mildew was determined visually in % infection of the entire leaf area. The visually determined values for the percentage of diseased leaf areas were converted into efficacies as % of the untreated control. An efficacy of 0 means the same disease level as in the untreated control, an efficacy of 100 means a disease level of 0%. The expected efficacies for the active compound combinations were determined using Colby's formula mentioned above and compared with the observed efficacies.

Puccinia recondita = experiment: Curative activity against brown rust of wheat (wheat seedlings cultivar Kanzler); assay type: in vivo; settings: 7 days
Protocol: The active compounds, separately or together, were formulated as a 10% emulsion in a mixture of 63% by weight of cyclohexanone and 27% by weight of emulsifier, and diluted with water to the desired concentration. Evaluation was carried out by determining the infected leaf areas in percent. These percentages were converted into efficacies. The efficacy (W) was determined as follows using Abbot's formula: [formula] α corresponds to the fungal infection of the treated plants in % and β corresponds to the fungal infection of the untreated (control) plants in % An efficacy of 0 means that the infection level of the treated plants corresponds to that of the untreated control plants; an efficacy of 100 means that the treated plants were not infected. The expected efficacies of the mixtures of the active compounds were determined using Colby's formula [R. S. Colby, Weeds 15, 20-22 (1967)] and compared with the observed efficacies. E=x+y−x·y/100 Colby's formula: • E expected efficacy, expressed in % of the untreated control, when using the mixture of the active compounds A and B at the concentrations a and b • x efficacy, expressed in % of the untreated control, when using the active compound A at the concentration a • y efficacy, expressed in % of the untreated control, when using the active compound B at the concentration b Leaves of wheat seedlings of the cultivar “Kanzler” grown in pots were dusted with spores of brown rust (Puccinia recondita). The pots were then placed in a chamber with high atmospheric humidity (90-95%), at 20-22° C. for 24 hours. During this time, the spores germinated and the germinal tubes penetrated into the leaf tissue. The next day, the infected plants were sprayed to runoff point with an aqueous formulation of active compound prepared from a stock solution comprising 10% of active compound, 85% of cyclohexanone and 5% of emulsifier. After the spray coating had dried on, the test plants were cultivated in a greenhouse at 20-22° C. and 65-70% relative atmospheric humidity for 7 days. Thereafter, the extent of the rust fungus development on the leaves was determined. The visually determined values for the percentage of diseased leaf areas were converted into efficacies as % of the untreated control. An efficacy of 0 means the same disease level as in the untreated control, an efficacy of 100 means a disease level of 0%. The expected efficacies for the combinations of active compounds were determined using Colby's formula mentioned above and compared with the observed efficacies.

[2] = 0.015 ppm active compound in the spray liquor
[3] = 0.06 ppm active compound in the spray liquor
[4] = 0.25 ppm active compound in the spray liquor
[5] = 1 ppm active compound in the spray liquor
[6] = 4 ppm active compound in the spray liquor

Row | Structure (SMILES) | Efficacy in % of the untreated control [1, 2] | Efficacy in % of the untreated control [1, 3] | Efficacy in % of the untreated control [1, 4] | Efficacy in % of the untreated control [1, 5] | Efficacy in % of the untreated control [1, 6] | Efficacy in % of the untreated control (Puccinia recondita; 0.006 ppm active compound in the spray liquor) | Efficacy in % of the untreated control (Puccinia recondita; [2]) | Efficacy in % of the untreated control (Puccinia recondita; [4]) | Efficacy in % of the untreated control (Puccinia recondita; [5]) | Efficacy in % of the untreated control (Puccinia recondita; [3])
1 | OC(Cc1ccccc1Cl)(Cn1nc[nH]c1=S)C1(Cl)CC1 (centres unmarked) [Compound I, 2-[2-(1-chlorocyclopropyl)-3-(2-chlorophenyl)-2-hydroxypropyl]-2,4-dihydro-[1,2,4]-triazole-3-thione] | 0 % of the untreated control | 0 % of the untreated control | 0 % of the untreated control | 0 % of the untreated control | 22 % of the untreated control | 0 % of the untreated control | 0 % of the untreated control | 0 % of the untreated control | 0 % of the untreated control | 
2 | COC(=O)N(OC)c1ccccc1COc1ccn(-c2ccc(Cl)cc2)n1 [Compound IV, pyraclostrobin] |  |  | 0 % of the untreated control | 0 % of the untreated control |  |  |  | 0 % of the untreated control |  | 0 % of the untreated control
3 | CO/N=C(/C(=O)OC)c1ccccc1CO/N=C(\C)c1cccc(C(F)(F)F)c1 [Compound II, trifloxystrobin] |  | 0 % of the untreated control | 22 % of the untreated control | 44 % of the untreated control | 83 % of the untreated control |  |  | 0 % of the untreated control |  | 0 % of the untreated control
4 | CO/C=C(/C(=O)OC)c1ccccc1COc1cccc(C(F)(F)F)n1 [Compound III, picoxystrobin] |  |  | 11 % of the untreated control |  |  |  |  | 0 % of the untreated control | 33 % of the untreated control | 0 % of the untreated control

From patent US10645930B2, “Fungicidal mixtures based on prothioconazole and a strobilurin derivative” (BASF SE, priority 2002, dated 2020)
